Active and inactive are the calls of the source. The calls are words filed in the database; no cut-off is given here.
Tests used:
Leishmania donovani [1] = experiment: Antileishmanial activity against Leishmania donovani MHOM/IN/AG/83 promastigotes infected in BALB/c mouse assessed as reduction of parasite burden in liver at 10 mg/kg, iv administered starting 2 weeks of post infection with five days interval between each treatment and measured after 28 days of treatment by Giemsa staining-based assay; format: functional; design: scale not given: the % may be the effect or the level left
[2] = Therapeutic index, ratio of IC50 for mouse RAW264.7 cells to IC50 for Leishmania donovani MHOM/IN/AG/83 promastigotes; format: toxicity; details: read-out: Ratio IC50
Peritoneal macrophage [3] = experiment: Induction of innate immune response in Leishmania donovani MHOM/IN/AG/83 infected BALB/c mouse peritoneal macrophages assessed as reduction in arginase 1 activity at 1 to 5 ug/ml incubated for 48 hrs using L-arginine and by spectrometry relative to control; format: functional
[4] = Drug uptake in mouse RAW264.7 cells assessed as retention time at 10 ug/ml incubated for 3 hrs by HPLC method; format: ADME, cell-based; details: raw264.7, 3 h
Leishmania donovani [5] = experiment: Antileishmanial activity against Leishmania donovani MHOM/IN/AG/83 promastigotes infected in BALB/c mouse assessed as reduction of parasite burden in liver at 25 mg/kg, iv administered starting 2 weeks of post infection with five days interval between each treatment and measured after 28 days of treatment by Giemsa staining-based assay; format: functional; design: scale not given: the % may be the effect or the level left
Mus musculus [6] = species: Mus musculus; experiment: Induction of innate immune response in splenocytes derived from compound treated BALB/c mouse infected with Leishmania donovani MHOM/IN/AG/83 assessed as downregulation of IL-10 mRNA expression by RT-PCR analysis; format: functional, organism-based
Mus musculus [7] = species: Mus musculus; experiment: Induction of innate immune response in splenocytes derived from compound treated BALB/c mouse infected with Leishmania donovani MHOM/IN/AG/83 assessed as downregulation of IL-10 protein expression by sandwich ELISA; format: functional, organism-based
Peritoneal macrophage [8] = experiment: Induction of innate immune response in Leishmania donovani MHOM/IN/AG/83 infected BALB/c mouse peritoneal macrophages assessed as downregulation of IL-10 mRNA expression at 2.5 ug/ml after 6 hrs by RT-PCR analysis; format: functional, cell-based
Mus musculus [9] = species: Mus musculus; experiment: Induction of innate immune response in splenocytes derived from compound treated BALB/c mouse infected with Leishmania donovani MHOM/IN/AG/83 assessed as upregulation of IL-12 mRNA expression by RT-PCR analysis; format: functional, organism-based
Peritoneal macrophage [10] = experiment: Induction of NO generation in Leishmania donovani MHOM/IN/AG/83 infected BALB/c mouse peritoneal macrophages assessed as nitrite levels after 48 hrs by Griess assay relative to untreated control; format: functional
Leishmania donovani [11] = experiment: Antileishmanial activity against Leishmania donovani MHOM/IN/AG/83 promastigotes infected in BALB/c mouse assessed as reduction of parasite burden in spleen at 25 mg/kg, iv administered starting 2 weeks of post infection with five days interval between each treatment and measured after 28 days of treatment by Giemsa staining-based assay; format: functional; design: scale not given: the % may be the effect or the level left
[12] = Ratio of therapeutic index of test compound to Amphotericin B by measuring ratio of IC50 for BALB/c mouse peritoneal macrophages to IC50 for Leishmania donovani MHOM/IN/AG/83 amastigotes; format: toxicity
[13] = Ratio of therapeutic index of test compound to Miltefosine by measuring ratio of IC50 for BALB/c mouse peritoneal macrophages to IC50 for Leishmania donovani MHOM/IN/AG/83 amastigotes; format: toxicity
Mus musculus [14] = species: Mus musculus; experiment: Induction of innate immune response in splenocytes derived from compound treated BALB/c mouse infected with Leishmania donovani MHOM/IN/AG/83 assessed as upregulation of IFNgamma mRNA expression levels by RT-PCR analysis; format: functional, organism-based
Leishmania donovani [15] = experiment: Antileishmanial activity against Leishmania donovani MHOM/IN/AG/83 promastigotes infected in BALB/c mouse assessed as reduction of parasite burden in spleen at 10 mg/kg, iv administered starting 2 weeks of post infection with five days interval between each treatment and measured after 28 days of treatment by Giemsa staining-based assay; format: functional; design: scale not given: the % may be the effect or the level left
Peritoneal macrophage [16] = experiment: Induction of innate immune response in Leishmania donovani MHOM/IN/AG/83 infected BALB/c mouse peritoneal macrophages assessed as increase in iNOS2 mRNA expression at 2.5 ug/ml incubated for 6 hrs by RT-PCR analysis relative to control; format: functional
Peritoneal macrophage [17] = experiment: Induction of innate immune response in Leishmania donovani MHOM/IN/AG/83 infected BALB/c mouse peritoneal macrophage assessed as downregulation of IL-10 levels at 2.5 ug/ml after 24 hrs by sandwich ELISA; format: functional
Mus musculus [18] = species: Mus musculus; experiment: Induction of innate immune response in splenocytes derived from compound treated BALB/c mouse infected with Leishmania donovani MHOM/IN/AG/83 assessed as reduction in arginase-1 expression by RT-PCR analysis relative to untreated control; format: functional
Peritoneal macrophage [19] = experiment: Cytotoxicity against BALB/c mouse peritoneal macrophages after 48 hrs by MTT assay; format: cell-based
Peritoneal macrophage [20] = experiment: Induction of innate immune response in Leishmania donovani MHOM/IN/AG/83 infected BALB/c mouse peritoneal macrophages assessed as upregulation of IL-12 mRNA expression at 2.5 ug/ml after 6 hrs by RT-PCR analysis; format: functional, cell-based
Leishmania donovani [21] = experiment: Antileishmanial activity against Leishmania donovani MHOM/IN/AG/83 promastigotes after 48 hrs by MTT assay; format: functional, organism-based; details: MHOM/IN/AG/83, 48 h
Mus musculus [22] = species: Mus musculus; experiment: Induction of innate immune response in splenocytes derived from compound treated BALB/c mouse infected with Leishmania donovani MHOM/IN/AG/83 assessed as upregulation of IFNgamma protein expression levels by sandwich ELISA; format: functional, organism-based
[23] = Therapeutic index, ratio of EC50 for BALB/c mouse peritoneal macrophages to EC50 for Leishmania donovani MHOM/IN/AG/83 amastigotes; format: toxicity; details: read-out: Ratio EC50
[24] = Binding affinity to plasma membrane of mouse RAW264.7 cells at 10 uM using compound with fluorophoric moiety attached via carbamate linkage by fluorescence microscopy; format: ADME, cell-based; details: raw264.7, 10 µM
Mus musculus [25] = species: Mus musculus; experiment: Induction of innate immune response in splenocytes derived from compound treated BALB/c mouse infected with Leishmania donovani MHOM/IN/AG/83 by Griess assay; format: functional
RAW264.7 = experiment: Cytotoxicity against mouse RAW264.7 cells after 48 hrs by MTT assay; format: cell-based; details: RAW264.7, 48 h
Peritoneal macrophage [26] = experiment: Induction of NO generation in Leishmania donovani MHOM/IN/AG/83 infected BALB/c mouse peritoneal macrophages assessed as increase in nitrite levels at 1 ug/ml after 48 hrs by Griess assay relative to untreated control; format: functional
Leishmania donovani [27] = experiment: Antileishmanial activity against Leishmania donovani MHOM/IN/AG/83 amastigotes infected in BALB/c mouse peritoneal macrophages after 42 hrs by Giemsa staining-based microscopic analysis; format: functional, organism-based; details: MHOM/IN/AG/83, 42 h
Mus musculus [28] = species: Mus musculus; experiment: Induction of innate immune response in splenocytes derived from compound treated BALB/c mouse infected with Leishmania donovani MHOM/IN/AG/83 assessed as reduction in arginase-1 activity using L-arginine by spectrometry relative to control; format: functional
Peritoneal macrophage [29] = experiment: Induction of NO generation in Leishmania donovani MHOM/IN/AG/83 infected BALB/c mouse peritoneal macrophages assessed as increase in nitrite levels at 5 ug/ml after 48 hrs by Griess assay relative to untreated control; format: functional
[30] = Drug uptake in mouse RAW264.7 cells assessed as ratio of drug level (cell lysate)/(drug level (supernatant) + drug level (cell lysate) at 10 ug/ml incubated for 3 hrs by HPLC method; format: ADME, cell-based; details: raw264.7, 3 h
Peritoneal macrophage [31] = experiment: Induction of NO generation in Leishmania donovani MHOM/IN/AG/83 infected BALB/c mouse peritoneal macrophages assessed as increase in nitrite levels at 2.5 ug/ml after 48 hrs by Griess assay relative to untreated control; format: functional
Mus musculus [32] = species: Mus musculus; experiment: Induction of innate immune response in splenocytes derived from compound treated BALB/c mouse infected with Leishmania donovani MHOM/IN/AG/83 assessed as upregulation of IL-12 protein expression by sandwich ELISA; format: functional, organism-based
Mus musculus [33] = species: Mus musculus; experiment: Induction of innate immune response in splenocytes derived from compound treated BALB/c mouse infected with Leishmania donovani MHOM/IN/AG/83 assessed as increase in iNOS2 mRNA expression by RT-PCR analysis; format: functional
Peritoneal macrophage [34] = experiment: Induction of innate immune response in Leishmania donovani MHOM/IN/AG/83 infected BALB/c mouse peritoneal macrophages assessed as upregulation of IL-12 levels at 2.5 ug/ml after 24 hrs by sandwich ELISA; format: functional

Q: Which Activity (Leishmania donovani [1]) does the source give for C=CCc1ccc(OC(=O)CCCCCCCCCCCCCCCCC)c(OC)c1 here?
A: 81%

Q: What about the selectivity ratio [2] of the same molecule?
A: 15.2

Q: What about the “fold change (FC)” value (Peritoneal macrophage [3]) of the same molecule?
A: 4

Q: What about the Retention_time [4] of the same molecule?
A: 3.173 min

Q: What about the Activity (Leishmania donovani [5]) of the same molecule?
A: 92%

Q: And the Activity (Mus musculus [6])?
A: Active

Q: And the Activity (Mus musculus [7])?
A: Active

Q: What about the Activity (Peritoneal macrophage [8]) of the same molecule?
A: Active

Q: What about the Activity (Mus musculus [9]) of the same molecule?
A: Active

Q: And the Activity (Peritoneal macrophage [10])?
A: Dose-dependent effect

Q: And the Activity (Peritoneal macrophage [10]; record 2)?
A: 38.83 µM

Q: And the Activity (Leishmania donovani [11])?
A: 87%

Q: And the Ratio [12]?
A: 10 to 13

Q: What about the Ratio [13] of the same molecule?
A: 10 to 13

Q: What about the Activity (Mus musculus [14]) of the same molecule?
A: Active

Q: And the Activity (Leishmania donovani [15])?
A: 72%

Q: What about the “fold change (FC)” value (Peritoneal macrophage [16]) of the same molecule?
A: 8

Q: What about the “fold change (FC)” value (Peritoneal macrophage [17]) of the same molecule?
A: 3

Q: And the “fold change (FC)” value (Mus musculus [18])?
A: 4

Q: What about the EC50 (Peritoneal macrophage [19]) of the same molecule?
A: 346 µM

Q: And the Activity (Peritoneal macrophage [20])?
A: Active

Q: What about the IC50 (Leishmania donovani [21]) of the same molecule?
A: 20.1 µM

Q: And the Activity (Mus musculus [22])?
A: Active

Q: And the selectivity ratio [23]?
A: 82.2

Q: What about the Activity [24] of the same molecule?
A: Active

Q: And the “fold change (FC)” value (Mus musculus [25])?
A: 8

Q: What about the IC50 (RAW264.7) of the same molecule?
A: 305 µM

Q: What about the “fold change (FC)” value (Peritoneal macrophage [26]) of the same molecule?
A: 3

Q: What about the EC50 (Leishmania donovani [27]) of the same molecule?
A: 4.25 µM

Q: What about the “fold change (FC)” value (Mus musculus [28]) of the same molecule?
A: 4

Q: And the “fold change (FC)” value (Peritoneal macrophage [29])?
A: 8

Q: And the Ratio [30]?
A: 0.62

Q: What about the “fold change (FC)” value (Peritoneal macrophage [31]) of the same molecule?
A: 7

Q: And the Activity (Mus musculus [32])?
A: Active

Q: And the “fold change (FC)” value (Mus musculus [33])?
A: 8

Q: And the “fold change (FC)” value (Peritoneal macrophage [34])?
A: 5

From ChEMBL document CHEMBL4130392, “Eugenol derived immunomodulatory molecules against visceral leishmaniasis” (Eur J Med Chem, 2017)
